Measurements: patent publication US20200024662A1, “METHODS FOR TREATING OPIOID ADDICTION” (ASSUREX HEALTH, INC., priority 2016, published 2020)

Legend:
[1] = test system: patients treated with Methadone in the START trial; assay: Completion of 24-week Methadone treatment, START samples of Example 2; assay type: in vivo, human; details: 24-week treatment
Protocol: (§1) Samples from patients treated with Methadone in the START trial described in Example 1 above were used (N=352). […] Each model was tested as described below against Sample 1, Sample 2 and/or the Full Sample.

[2] = test system: patients treated with Methadone in the START trial; assay: Baseline model (GeneSight Analgesic test) binning vs Methadone completion; assay type: in vivo, human; details: Full Sample
Protocol: (§2) For the model analyses, models were developed that sort patients into one of three categories, Green (‘G’) Yellow (‘Y’) or Red (‘R’). Patients determined to be high risk for non-completion by the model are placed into the Red Bin. Patients at intermediate risk of non-completion are placed in the Yellow Bin, and for this study, Yellow Bin patients are treated the same as patients found to be at Low Risk of non-completion, or those who are placed in the Green Bin. Thus, the Green and Yellow bins are combined for analysis.
The GeneSight Analgesic test (commercial test available from Assurex Health, Inc.) was used as a baseline to determine High Risk patients entering methadone maintenance therapy. Furthremore, the following PK, PD and PK/PD models were evaluated.
as §1
(§3) Pearson's product moment, Chi-square with Yates correction were calculated. Diagnostic tests, odds ratios, Pearson's product moment, Chi-square with Yates correction were calculated using MEDCALC and R version 3.3.1.

START trial patients = assay: Combinatorial gene modeling: composite genetic risk score (biology-based and data-based) vs non-completion
Source text: We next undertook a combinatorial approach to assess whether there was a composite genetic risk score having a significant association with completion rate. Risk scores were assigned using two different models, a “biology-based” model and a “data-based” model. The biology based risk scores were assigned using the most biologically appropriate hypothesis for a given genotype or haplotype, for example, based upon the enzyme activity reported to be associated with that genotype or haplotype in the scientific literature (e.g., as shown in Table 1 above) in combination with current biological understanding of the drug including both its pharmacokinetics (how it is absorbed, distributed, metabolized and excreted) and its pharmacodynamics (how it effects the body).
In contrast, the data-based risk scores were assigned based on how the phenotype of the genotype or haplotype for each gene was associated with non-completion in the single-gene analysis above. For example, a patient may be scored 0 if his/her phenotype is reduced, 0.5 if intermediate, and 1 if high.
We then used a composite risk score, which is the sum of the individual risk scores for each gene of interest, to assess the impact of various combinations of genetic markers on the ability of the patients to complete the 24-week drug treatment regimen. The completion/non-completion was modeled using a logistic regression which included the total genetic risk score and dose-bin-category. This model assesses the effect of the total genetic risk score on the non-completion rate while adjusting for drug dose level. The likelihood of non-completion with respect to the total genetic risk score is represented by the odds ratio. If a p-value is <0.05, then it is considered that statistically significant that the non-completion is associated with the total genetic risk score.

[3] = test system: patients treated with Methadone in the START trial; assay: PD Model 3 binning vs Methadone completion; assay type: in vivo, human
Protocol: as §2
PD Model 3: The completion percentage was calculated for each genotype. For each genotype, the raw percent difference of completion compared to the mean of completion was assigned as the genotype's PD score. The patient's PD risk was calculated by summing the total genotype risk score. Bins were assigned over the range of scores that maximized completers in Green and Yellow bins and non-completers in the Red bin.
as §1, §3

[4] = test system: patients treated with Methadone in the START trial; assay: PD Model 2 binning vs Methadone completion; assay type: in vivo, human
Protocol: as §2
PD Model 2: The completion percentage was calculated for each genotype. For each gene and genotype completion percentage, the means and standard deviations were calculated. For each genotype that was one standard deviation away from the mean, towards higher completion, a score of 1 was given. For each genotype that was one standard deviation away from the mean, towards lower completion, a score of −1 was given. For genotypes that were not one standard deviation away, the raw percent difference from the mean was observed as the score. Each score was then normalized across each gene using a scale from 0.2 to 1. Each value was normalized across all genes by converting the percentages on a plus/minus scale of 0, 0.2, 0.5, and 1 according to Table 17. Values that were greater than or equal to 1 SD away were automatically scored as a 1 or −1. The conversion of genotypes to scores was as shown in Tabl 18. The patient's PD risk was calculated by summing the total genotype risk score. Bins were assigned over the range of scores that maximized completers in Green and Yellow bins and non-completers in the Red bin.
as §1, §3

[5] = test system: patients treated with Methadone in the START trial; assay: PK/PD Model 3 binning vs Methadone completion; assay type: in vivo, human
Protocol: as §2
Three separate PK/PD Models were generated by combining the PK model with each of the three PD models separately as follows. For each PKPD model, the corresponding PD risk score was added to the raw PK score (bin). A total PD risk score that was negative, represents a reduction of the baseline PK score, while a total PD risk score that was positive represented an increase in the baseline PK score.
as §1, §3

[6] = composite genetic risk score vs non-completion, adjusted for Dose-bin, 25 gene combinations
[7] = PD Model 3, Full Sample, Green bin, Risk Score −2.3 to −0.3
[8] = PD Model 3, Full Sample, Red bin, Risk Score 1+
[9] = PD Model 3, Full Sample, Yellow bin, Risk Score −0.2 to 0.9
[10] = PD Model 3, Sample 1, Green bin, Risk Score −1.8 to −0.3
[11] = PD Model 3, Sample 1, Red bin, Risk Score 1 to 2.1
[12] = PD Model 3, Sample 1, Yellow bin, Risk Score −0.2 to 0.9
[13] = PD Model 3, Sample 2, Green bin, Risk Score −2.1 to −0.7
[14] = PD Model 3, Sample 2, Red bin, Risk Score 0.2 to 2
[15] = PD Model 3, Sample 2, Yellow bin, Risk Score −0.6 to 0.1
[16] = PD Model 2, Full Sample, Green bin, Risk Score −4.2 to −0.2
[17] = PD Model 2, Full Sample, Red bin, Risk Score 1.3+
[18] = PD Model 2, Full Sample, Yellow bin, Risk Score 0.1 to 1
[19] = PD Model 2, Sample 1, Green bin, Risk Score −3.3 to −0.2
[20] = PD Model 2, Sample 1, Red bin, Risk Score 1.3 to 3.7
[21] = PD Model 2, Sample 1, Yellow bin, Risk Score 0.2 to 1
[22] = PD Model 2, Sample 2, Green bin, Risk Score −3.2 to −1
[23] = PD Model 2, Sample 2, Red bin, Risk Score 0.5 to 2.7
[24] = PD Model 2, Sample 2, Yellow bin, Risk Score −0.9 to 0.3
[25] = PK/PD Model 3, Full Sample, Green bin, Risk Score −1.3 to 1.3
[26] = PK/PD Model 3, Full Sample, Red bin, Risk Score 2.4+
[27] = PK/PD Model 3, Full Sample, Yellow bin, Risk Score 1.4 to 2.3
[28] = PK/PD Model 3, Sample 1, Green bin, Risk Score −0.8 to 1.3
[29] = PK/PD Model 3, Sample 1, Red bin, Risk Score 2.4 to 5.1
[30] = PK/PD Model 3, Sample 1, Yellow bin, Risk Score 1.4 to 2.3
[31] = PK/PD Model 3, Sample 2, Green bin, Risk Score −1.1 to 0.8
[32] = PK/PD Model 3, Sample 2, Red bin, Risk Score 2.2 to 4.3
[33] = PK/PD Model 3, Sample 2, Yellow bin, Risk Score 0.9 to 2.1

CCC(=O)C(CC(C)N(C)C)(c1ccccc1)c1ccccc1 (stereo not shown) [Methadone, methadone]
Completers ([1]; Sample 1 (N=176)): 156 | non-completers ([1]; Sample 1 (N=176)): 20 | Completers ([1]; Sample 2 (N=176)): 159 | non-completers ([1]; Sample 2 (N=176)): 17 | Completers ([2]; Green bin): 170 | Non Completers ([2]; Green bin): 19 | Completers ([2]; Red bin): 28 | Non Completers ([2]; Red bin): 3 | Completers ([2]; Yellow bin): 109 | Non Completers ([2]; Yellow bin): 23 | Odds Ratio for Non-Completers (START trial patients; Biology-Based, ORG4-CYP2B6-CYP2C19): 1.38 | Odds Ratio for Non-Completers (START trial patients; Biology-Based, ORG4-CYP2C19): 1.53 | Odds Ratio for Non-Completers (START trial patients; Biology-Based, ORG4-CYP2C19-1A2): 1.53 | Odds Ratio for Non-Completers (START trial patients; Biology-Based, ORG4-CYP2C19-2C9): 1.44 | Odds Ratio for Non-Completers (START trial patients; Biology-Based, ORG4-CYP2C19-2D6): 1.34 | Odds Ratio for Non-Completers (START trial patients; Data-Based, ORG4-CYP2B6-CYP2C19): 1.9 | Odds Ratio for Non-Completers (START trial patients; Data-Based, ORG4-CYP2C19): 1.76 | Odds Ratio for Non-Completers (START trial patients; Data-Based, ORG4-CYP2C19-1A2): 1.46 | Odds Ratio for Non-Completers (START trial patients; Data-Based, ORG4-CYP2C19-2C9): 1.77 | Odds Ratio for Non-Completers (START trial patients; Data-Based, ORG4-CYP2C19-2D6): 1.72 | composite endpoints significant, biology-based model (START trial patients; [6]): 7 of 25 | composite endpoints significant, data-based model (START trial patients; [6]): 23 of 25 | Completers [3, 7]: 137 | Non Completers [3, 7]: 9 | Completers [3, 8]: 39 | Non Completers [3, 8]: 10 | Completers [3, 9]: 131 | Non Completers [3, 9]: 26 | Completers [3, 10]: 74 | Non Completers [3, 10]: 2 | Completers [3, 11]: 20 | Non Completers [3, 11]: 7 | Completers [3, 12]: 62 | Non Completers [3, 12]: 11 | Completers [3, 13]: 77 | Non Completers [3, 13]: 2 | Completers [3, 14]: 29 | Non Completers [3, 14]: 9 | Completers [3, 15]: 53 | Non Completers [3, 15]: 6 | Completers [4, 16]: 101 | Non Completers [4, 16]: 7 | Completers [4, 17]: 86 | Non Completers [4, 17]: 20 | Completers [4, 18]: 120 | Non Completers [4, 18]: 18 | Completers [4, 19]: 58 | Non Completers [4, 19]: 3 | Completers [4, 20]: 43 | Non Completers [4, 20]: 12 | Completers [4, 21]: 55 | Non Completers [4, 21]: 5 | Completers [4, 22]: 70 | Non Completers [4, 22]: 2 | Completers [4, 23]: 32 | Non Completers [4, 23]: 9 | Completers [4, 24]: 57 | Non Completers [4, 24]: 6 | Completers [5, 25]: 150 | Non Completers [5, 25]: 7 | Completers [5, 26]: 64 | Non Completers [5, 26]: 28 | Completers [5, 27]: 93 | Non Completers [5, 27]: 10 | Completers [5, 28]: 80 | Non Completers [5, 28]: 2 | Completers [5, 29]: 26 | Non Completers [5, 29]: 12 | Completers [5, 30]: 50 | Non Completers [5, 30]: 6 | Completers [5, 31]: 77 | Non Completers [5, 31]: 2 | Completers [5, 32]: 24 | Non Completers [5, 32]: 10 | Completers [5, 33]: 58 | Non Completers [5, 33]: 5
